# Results from ChEMBL document CHEMBL1641584 (Bioorg Med Chem Lett, 2011).
# Calls of active or inactive are those of the source. The calls are words filed in the database; no cut-off is given here.
# Target: not listed separately
# Experiment: Inhibition of guinea pig protein-glutamine gamma-glutamyltransferase 2 assessed as fluorescent intensity of monodansyl cadaverine
# Set-up: species or system Cavia porcellus
row,SMILES,IC50 [nM]
1,COC(=O)C(CSSCC(NCCC(=O)c1ccc(Br)cc1)C(=O)OC)NCCC(=O)c1ccc(Br)cc1 (stereo not drawn),11000
2,COC(=O)C(CSSCC(NCCC(=O)c1cccc(Br)n1)C(=O)OC)NCCC(=O)c1cccc(Br)n1 (stereo not drawn),1100
3,O=C(CCNCCSSCCNCCC(=O)c1ccc(I)cc1)c1ccc(I)cc1,890
4,O=C(CCNCCSSCCNCCC(=O)c1ccc(I)s1)c1ccc(I)s1,170
5,COC(=O)C(CCSSCCC(NCCC(=O)c1ccc(I)s1)C(=O)OC)NCCC(=O)c1ccc(I)s1 (stereo not drawn),100
6,COC(=O)C(CCSSCCC(NCCC(=O)c1cc2ccccc2s1)C(=O)OC)NCCC(=O)c1cc2ccccc2s1 (stereo not drawn),120
7,COC(=O)C(CCSSCCC(NCCC(=O)c1ccc(Br)s1)C(=O)OC)NCCC(=O)c1ccc(Br)s1 (stereo not drawn),99
8,O=C(CCNCCSSCCNCCC(=O)c1ccc(Cl)s1)c1ccc(Cl)s1,120
9,O=C(CCNCCSSCCNCCC(=O)c1cccnc1)c1cccnc1,1400
10,COC(=O)C(CSSCC(NCCC(=O)c1ccc(Br)s1)C(=O)OC)NCCC(=O)c1ccc(Br)s1 (stereo not drawn),180
11,COC(=O)C(CCSSCCC(NCCC(=O)c1sccc1Br)C(=O)OC)NCCC(=O)c1sccc1Br (stereo not drawn),330
12,N#Cc1ccc(C(=O)CCNCCSSCCNCCC(=O)c2ccc(C#N)cc2)cc1,1100
13,COC(=O)C(CSSCC(NCCC(=O)c1cccs1)C(=O)OC)NCCC(=O)c1cccs1 (stereo not drawn),400
14,O=C(CCNCCSSCCNCCC(=O)c1ccco1)c1ccco1,420
15,O=C(CCNCCSSCCNCCC(=O)c1cccc(Br)n1)c1cccc(Br)n1,2600
16,COC(=O)C(CSSCC(NCCC(=O)c1ccc(I)s1)C(=O)OC)NCCC(=O)c1ccc(I)s1 (stereo not drawn),240
17,COC(=O)C(CSSCC(NCCC(=O)c1ncccn1)C(=O)OC)NCCC(=O)c1ncccn1 (stereo not drawn),5500
18,COC(=O)C(CSSCC(NCCC(=O)c1ccc(Cl)s1)C(=O)OC)NCCC(=O)c1ccc(Cl)s1 (stereo not drawn),190
19,COC(=O)C(CSSCC(NCCC(=O)c1ccc(C#N)cc1)C(=O)OC)NCCC(=O)c1ccc(C#N)cc1 (stereo not drawn),1300

row,SMILES,IC50 [nM]
1,COC(=O)C(CSSCC(NCCC(=O)c1ccc2ccccc2c1)C(=O)OC)NCCC(=O)c1ccc2ccccc2c1 (stereo not drawn),19000
2,O=C(CCNCCSSCCNCCC(=O)c1ccsc1)c1ccsc1,1600
3,O=C(CCNCCSSCCNCCC(=O)c1ccccc1)c1ccccc1,2200
4,COC(=O)C(CSSCC(NCCC(=O)c1ccncc1)C(=O)OC)NCCC(=O)c1ccncc1 (stereo not drawn),3400
5,O=C(CCNCCSSCCNCCC(=O)c1cccs1)c1cccs1,510
6,O=C(CCNCCSSCCNCCC(=O)c1sccc1Br)c1sccc1Br,210
7,COC(=O)C(CSSCC(NCCC(=O)c1ccco1)C(=O)OC)NCCC(=O)c1ccco1 (stereo not drawn),2900
8,COC(=O)C(CCSSCCC(NCCC(=O)c1ccc(Br)cc1)C(=O)OC)NCCC(=O)c1ccc(Br)cc1 (stereo not drawn),1600
9,COC(=O)C(CSSCC(NCCC(=O)c1ncc(C)s1)C(=O)OC)NCCC(=O)c1ncc(C)s1 (stereo not drawn),4000
10,COC(=O)C(CSSCC(NCCC(=O)c1nccs1)C(=O)OC)NCCC(=O)c1nccs1 (stereo not drawn),9700
11,COC(=O)C(CSSCC(NCCC(=O)c1cc2ccccc2s1)C(=O)OC)NCCC(=O)c1cc2ccccc2s1 (stereo not drawn),900
12,O=C(CCNCCSSCCNCCC(=O)c1ccc2ccccc2c1)c1ccc2ccccc2c1,2000
13,O=C(CCNCCSSCCNCCC(=O)c1cc2ccccc2s1)c1cc2ccccc2s1,170
14,O=C(CCNCCSSCCNCCC(=O)c1ccc(Br)cc1)c1ccc(Br)cc1,120
15,COC(=O)C(CCSSCCC(NCCC(=O)c1cccs1)C(=O)OC)NCCC(=O)c1cccs1 (stereo not drawn),3600
16,COC(=O)C(CCSSCCC(NCCC(=O)c1ccc(Cl)s1)C(=O)OC)NCCC(=O)c1ccc(Cl)s1 (stereo not drawn),120
17,COC(=O)C(CSSCC(NCCC(=O)c1sccc1Br)C(=O)OC)NCCC(=O)c1sccc1Br (stereo not drawn),5700
18,O=C(CCNCCSSCCNCCC(=O)c1ccc(Br)s1)c1ccc(Br)s1,120

# Species on record: Cavia porcellus
# Experiment: Inhibition of guinea pig protein-glutamine gamma-glutamyltransferase 2-mediated amyloid-beta oligomerization at 0.1 to 10 uM
row,SMILES,inhibition
1,NNC(=O)CSc1nc2sc3c(c2c(=O)n1-c1cccc(F)c1)C(c1ccccc1)CCC3 (stereo not drawn),Active
